Values joined by “and” are separate entries in the source; they are usually repeats but may differ in a detail not shown here. Equal values may be shown once.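 Each compound was tested at five concentrations against cells in 96-well plates for 48 hours. GI50 = concentration required for 50% inhibition of growth. TGI denotes the concentration required for complete inhibition of growth.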 *1 amine or outer side, *2 acyl side, *3 side chain or, on linkers, in order; H or OH if unused. Where a SMILES comes first, the peptide text is derived from it. [ ]: non-standard residue; d: D form. The star is where a group is joined. X31 = CC(=O)N(C)SCC(N[*:1])C(=O)[*:2]; Cbz = O=C(OCc1ccccc1)*; Bn = c1ccc(C*)cc1; For = O=C*
How the values were obtained:
Assay in all cases: growth of human tumour cells (NCI), 48 h
HCC-2998 colon = system: HCC-2998 colon
HS 578T breast = system: HS 578T breast
COLO 205 colon = system: COLO 205 colon

Row | Structure (SMILES) | GI50 (HCC-2998 colon) | TGI (HCC-2998 colon) | TGI (HS 578T breast) | GI50 (COLO 205 colon) | TGI (COLO 205 colon) | GI50 (HS 578T breast)
1 | N#Cc1c(-c2ccccc2)cc(-c2ccccc2)n(C2OC(CO)C(O)C(O)C2O)c1=S (stereo unspecified) | 26.4 µM and 93.8 µM | 91 µM and > 100 µM | 64.4 µM and > 100 µM | 17.9 µM and 43 µM | 45.9 µM and > 100 µM | –
2 | CS(=O)(=O)c1nc(-c2cc3c(c(S(C)(=O)=O)n2)CCC3)cc2c1CCCCC2 | – | > 100 µM | 40 µM | – | > 100 µM | –
3 | O=C1NC2ON=C(c3ccccc3)C2C2ON=C(c3ccccc3)N12 (stereo unspecified) | – | > 100 µM | > 100 µM | – | > 100 µM | –
4 | COC(=O)C1(C(=O)OC)Cc2ccc(OC)cc2C2=C1C(=O)c1ccccc1C2=O | – | 37.6 µM | 50.4 µM | – | 40.5 µM | –
5 | CCc1c2c([nH]c(=S)c1C#N)CCC2 | – | > 100 µM | > 100 µM | – | > 100 µM | –
6 | O=C(ON=C1c2ccccc2C(Br)C(Br)c2ccccc21)c1cc([N+](=O)[O-])cc([N+](=O)[O-])c1 (stereo unspecified) | – | 68.3 µM | 61.6 µM | – | 40 µM | –
7 | Clc1ccc(NCc2nnc(CCCCCCCCc3nnc(CNc4ccc(Cl)cc4)o3)o2)cc1 | – | > 100 µM | > 100 µM | – | > 100 µM | –
8 | COC(=O)C1(CCC(C)=O)CCCCCC1=O (stereo unspecified) | – | > 100 µM | – | – | > 100 µM | –
9 | CC(=O)N(C)SCC(NC(=O)C(Cc1ccccc1)NC(=O)OCc1ccccc1)C(=O)NC(Cc1ccccc1)C(=O)NC(Cc1cn(C=O)c2ccccc12)C(=O)NC(CCCCNC(=O)OCc1ccccc1)C(=O)NC(C(=O)NC(CSN(C)C(C)=O)C(=O)NC(C(N)=O)C(C)OCc1ccccc1)C(C)OCc1ccccc1 (stereo unspecified) (Cbz-F[X31]FW(For)K(Cbz)T(Bn)[X31]T(Bn)-NH2; configuration not given here) | – | > 100 µM | > 100 µM | – | > 100 µM | –
10 | CCOc1cc(NC(C)=O)ccc1C(=O)NN1C(=O)C(Cl)C1c1ccccc1 (stereo unspecified) | – | 32.3 µM | 83.1 µM | – | 31.8 µM | –
11 | O=S1(=O)N=C(SCc2ccccc2)N(c2ccccc2)c2ccncc21 | – | > 100 µM | 83.4 µM | – | 38.3 µM | –
12 | NC(N)=N/N=C/c1c(-c2ccc(Cl)cc2)nc2sccn12 | – | 2.74 µM | 37.6 µM | – | 2.87 µM | –
13 | CC(C)Cn1cnc2c(NCC(C)O)nc3ccccc3c21 (stereo unspecified) | – | > 100 µM | > 100 µM | – | > 100 µM | –
14 | CNC1=C(C)C(=O)C(=O)C([C@H](C)CCC=C(C)C)=C1O | – | 99.3 µM | > 91.8 µM | – | > 73.7 µM | –
15 | CCCCCCCCCCCCCCCCCCNc1ccn(C2OC(COP(=O)(O)OCC3OC(n4cc(F)c(=O)[nH]c4=O)CC3O)C(O)C2O)c(=O)n1 (stereo unspecified) | – | > 100 µM | > 100 µM | – | > 80.4 µM | –
16 | C=CCN1C(=O)/C(=C/c2ccc(OC)cc2)N=C1SC/C=C/C | – | > 100 µM | > 100 µM | – | > 100 µM | –
17 | Cc1cc2ccccc2n2c1nc1ccccc12 | – | > 100 µM | > 100 µM | – | > 100 µM | –
18 | CCOC(=O)/C(C#N)=C\c1ccc(N(CCC(=O)O)CCC(=O)O)c(I)c1 | – | > 10 µM | > 10 µM | – | > 10 µM | –
19 | OC1(c2cccs2)c2cccc(Cl)c2C(O)(c2cccs2)c2c(Cl)cccc21 (stereo unspecified) | – | > 100 µM | 33.4 µM | – | > 100 µM | –

Row | Structure (SMILES) | GI50 (HCC-2998 colon) | TGI (HCC-2998 colon) | TGI (HS 578T breast) | GI50 (COLO 205 colon) | TGI (COLO 205 colon) | GI50 (HS 578T breast)
20 | CSc1nc(C#N)c(/N=C\N(C)C)n1C | – | – | > 100 µM | – | > 100 µM | –
21 | O=C1CCC2C(O)c3cc4c(cc3C(c3ccc5c(c3)OCO5)N12)OCO4 (stereo unspecified) | – | > 100 µM | 81.7 µM | – | > 100 µM | –
22 | COc1cc(O)c2c(=O)cc(-c3ccc(O)cc3O)oc2c1CC=C(C)C | – | – | > 100 µM | – | 26.7 µM | –
23 | O=C1c2cc(Cl)ccc2-n2cnnc2C2CSCN12 (stereo unspecified) | – | > 100 µM | > 100 µM | – | > 100 µM | –
24 | CCOC(=O)P(=O)(O)c1ccc(N(C)Cc2ccccc2)cc1 | – | > 100 µM | > 100 µM | – | > 100 µM | –
25 | O=C(Nc1ccc(Cl)cc1)NS(=O)(=O)c1coc2cc(F)ccc2c1=O | – | > 100 µM | > 100 µM | – | > 100 µM | –
26 | C=CCOc1cccc(C2(O)c3ccccc3C3=NCCCN32)c1 (stereo unspecified) | – | 29.6 µM | > 78.4 µM | – | 33.5 µM | –
27 | COc1ccc(-c2c(C#N)c(N)n(C3OCC(OC(C)=O)C(OC(C)=O)C3OC(C)=O)c(=S)c2C#N)cc1 (stereo unspecified) | – | 60.9 µM and > 100 µM | > 100 µM | – | > 100 µM | 33.5 µM and 76.2 µM
28 | O=C1/C(=C/c2cccc(F)c2)CCCc2ccccc21 | – | 27.8 µM | 28.5 µM | – | 36.4 µM | –
29 | O=C1/C(=C/c2cccc(Br)c2)CCc2ccccc21 | – | – | 24.8 µM | – | 40.8 µM | –
30 | CC[C@]1(Cc2ccc(OC)c(OC)c2)C=[N+]([O-])O[C@H](OC2CCCC2(c2ccccc2)c2ccccc2)[C@@H]1OC(=O)c1ccccc1 (stereo partly specified) | – | > 27.4 µM | > 100 µM | – | > 100 µM | –
31 | C(=C\c1cccs1)/c1cccc(/C=C/c2cccs2)n1 | – | > 100 µM | – | – | > 100 µM | –
32 | COC1(OC)c2no[n+]([O-])c2CCC1O (stereo unspecified) | – | > 100 µM | > 100 µM | – | > 100 µM | –
33 | CCCCCCCCCCCCCCCCCCNC(=O)C(N)Cc1ccc(OCc2ccccc2)cn1 (stereo unspecified) | – | 24.2 µM | 51.1 µM | – | 28.8 µM | –
34 | COC(=O)c1ccc(C)cc1CC1Cc2cc(C)ccc2C1=O (stereo unspecified) | – | > 100 µM | > 100 µM | – | > 100 µM | –
35 | O=C1/C(=C/c2ccccc2O)N=C(c2ccccc2)N1C1Nc2cc3c(cc2S1)NC(N1C(=O)/C(=C/c2ccccc2O)N=C1c1ccccc1)S3 (stereo unspecified) | – | > 100 µM | > 100 µM | – | – | –
36 | CN(C)Nc1cc(=O)[nH]c(=O)[nH]1 | – | > 100 µM | – | – | > 100 µM | –
37 | Cc1csc2[n+]1C(=O)/C(=C\c1ccc([N+](=O)[O-])cc1)S2 | – | 43.9 µM | 74.3 µM | – | 39.9 µM | –
38 | C=CCN1C(=O)C=C(c2ccccc2)n2ncc3cccc1c32 | – | – | > 100 µM | – | > 100 µM | –

Row | Structure (SMILES) | GI50 (HCC-2998 colon) | TGI (HCC-2998 colon) | TGI (HS 578T breast) | GI50 (COLO 205 colon) | TGI (COLO 205 colon) | GI50 (HS 578T breast)
39 | Cc1csc2c(=O)n(C3OC(CO)C(O)C3O)c(=O)[nH]c12 (stereo unspecified) | – | – | > 100 µM | – | > 100 µM | –
40 | Cc1nc2ccccc2n1COC(Cn1ccnc1)c1ccc(Cl)cc1Cl (stereo unspecified) | – | > 100 µM | > 100 µM | – | > 100 µM | –
41 | COC(=O)[C@@H]1CN(C(C)=O)C(=O)N1 | – | > 100 µM | > 100 µM | – | > 100 µM | –
42 | CCOP(=O)(OCC)/C(C#N)=C/c1ncc[nH]1 | – | > 100 µM | > 100 µM | – | > 100 µM | –
43 | [N-]=[N+]=Nc1ccccc1C(=O)N1C(=O)c2ccccc2C(=O)N(C(=O)c2ccccc2N=[N+]=[N-])c2ccccc21 | – | > 100 µM | > 100 µM | – | > 100 µM | –
44 | C=CCNC(=O)NC(=O)CSC1=NNC2(C(=O)N1)c1ccccc1-c1ccccc12 | – | > 10 µM | > 10 µM | – | > 10 µM | –
45 | CCSc1[nH]c(NC(=S)NC(=O)c2ccccc2Cl)c(C(N)=O)c1C(N)=O | – | > 10 µM | – | – | > 10 µM | –
46 | CCOC(=O)c1cccn1S(=O)(=O)c1cc(Cl)ccc1NC(=O)CC | – | – | > 100 µM | – | 65.4 µM | –
47 | CNc1ncnc2c1ncn2C1C=CC(COS(N)(=O)=O)C1 (stereo unspecified) | – | > 100 µM | > 100 µM | – | > 100 µM | –
48 | Cn1c(=O)c(Br)c(C=O)n(CCO[N+](=O)[O-])c1=O | – | 32 µM | > 100 µM | – | 26.9 µM | –
49 | Cn1c2ccccc2c2c(-c3ccccc3)cc3c(c21)C(=O)C=CC3=O | – | > 8.05 µM | 9.62 µM | – | 2.05 µM | –
50 | O=C1/C(=C\c2ccc(O)cc2)CCC/C1=C/c1ccc(Cl)c(Cl)c1 | – | 5.94 µM | 21.5 µM | – | 3.67 µM | –
51 | CC(=O)NC1C(OCc2ccccc2)OC(CO)C(O)C1OC(C)C(=O)NC(C(=O)N[C@@H](CCC(=O)NCCNCCNc1c2ccccc2nc2cccc([N+](=O)[O-])c12)C(N)=O)C(C)C (stereo partly specified) | – | 50.4 µM | > 100 µM | – | 56.7 µM | –
52 | O=C(CN1CCCCC1)Nc1ccc2sc3ccccc3c(=O)c2n1 | – | 36.8 µM | 45.2 µM | – | 28.3 µM | –
53 | O=C(O)c1nc2cc(C(F)(F)F)ccc2nc1Nc1ccc(F)cc1 | – | – | 74.3 µM | – | 37.1 µM | –
54 | C=C(C)C1=CCC[C@]2(C1)N=C(OC)[C@@H](C(C)C)N=C2OC | – | > 100 µM | > 100 µM | – | > 100 µM | –
55 | O=C(NC1=NCC(CN2CCN(c3ccccc3)CC2)O1)Nc1ccccc1 (stereo unspecified) | – | > 100 µM | > 100 µM | – | > 100 µM | –
56 | Cc1cc2c(cc1-c1cc3c(cc1C)C(C(C)C)=C(O)C(=O)/C3=C\Nc1c3ccccc3nc3ccccc13)/C(=C/Nc1c3ccccc3nc3ccccc13)C(=O)C(O)=C2C(C)C | – | – | 21 µM | – | 6.72 µM | –
57 | COC(=O)/C=C(/C)n1nc2ccccc2n1 | – | > 100 µM | > 100 µM | – | > 100 µM | –

Reference: PubChem BioAssay (NCI)
